# Data as given in patent US12617779B2, “Self degradation-type CDK9 inhibitor prodrug and liposome encapsulating same” (Sumitomo Pharma Co., Ltd., priority 2021, dated 2026).
# Tests used:
# [1] = Evaluation of conversion rate to active form in buffer solution (Experimental Example 1); format: physicochemical; settings: for Production rate of Alvocidib / Residual rate: 37° C., 25 umol/L in buffer solution
# In short: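 Conversion to Alvocidib and loss of parent were followed by HPLC over 3 h (samples at 0, 0.5, 1, 2, 3 h). Incubations used 25 umol/L compound at 37 °C across pH 5.0–7.4, in 50 mM citrate below pH 6.0 and 50 mM phosphate from pH 6.0 upward.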
# [2] = Evaluation of conversion rate to active form in human plasma (Experimental Example 3); format: in vitro ADME; settings: 0.2 μmol/L, 37° C.; for Residual rate (%) of test compound: Human plasma
# In short: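 Test compound at 0.2 μmol/L was incubated at 37° C in human or BALB/c mouse plasma and sampled at 0, 30 and 60 min or at 0, 60 and 120 min. Compound and Alvocidib were quantified by LC-MS/MS peak area. Attrition is relative to 0 min; conversion is relative to 0.2 μmol/L Alvocidib reference.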
smiles,measurement,setting,value
"CCN(C[C@H]1CCCCN1)C(=O)Oc1cc(O)c2c(=O)cc(-c3ccccc3Cl)oc2c1[C@H]1CCN(C)C[C@H]1O [Example 2, 2-(2-chlorophenyl)-5-hydroxy-8-[(3S,4R)-3-hydroxy-1-methylpiperidin-4-yl]-4-oxo-4H-1-benzopyran-7-yl ethyl{[(2R)-piperidin-2-yl]methyl}carbamate]",Production rate of Alvocidib,"[1]; pH5.0, 0 hr",0.0%
same,Residual rate,"[1]; pH5.0, 0 hr",95.5%
same,Stability in buffer solution at pH 5,"[1]; pH 5, 37° C., up to 2 or 3 hours",stable
same,Production rate of Alvocidib,"[1]; pH5.0, 0.5 hr",0.3%
same,Residual rate,"[1]; pH5.0, 0.5 hr",95.4%
same,Production rate of Alvocidib,"[1]; pH5.0, 1 hr",0.5%
same,Residual rate,"[1]; pH5.0, 1 hr",95.1%
same,Production rate of Alvocidib,"[1]; pH5.0, 2 hr",1.1%
same,Residual rate,"[1]; pH5.0, 2 hr",94.7%
same,Production rate of Alvocidib,"[1]; pH5.0, 3 hr",1.6%
same,Residual rate,"[1]; pH5.0, 3 hr",94.1%
same,Production rate of Alvocidib,"[1]; pH5.5, 0 hr",0.0%
same,Residual rate,"[1]; pH5.5, 0 hr",95.8%
same,Production rate of Alvocidib,"[1]; pH5.5, 0.5 hr",0.8%
same,Residual rate,"[1]; pH5.5, 0.5 hr",95.1%
same,Production rate of Alvocidib,"[1]; pH5.5, 1 hr",1.7%
same,Residual rate,"[1]; pH5.5, 1 hr",94.3%
same,Production rate of Alvocidib,"[1]; pH5.5, 2 hr",3.2%
same,Residual rate,"[1]; pH5.5, 2 hr",92.5%
same,Production rate of Alvocidib,"[1]; pH5.5, 3 hr",5.3%
same,Residual rate,"[1]; pH5.5, 3 hr",90.4%
same,Production rate of Alvocidib,"[1]; pH6.0, 0 hr",0.0%
same,Residual rate,"[1]; pH6.0, 0 hr",95.5%
same,Production rate of Alvocidib,"[1]; pH6.0, 0.5 hr",2.9%
same,Residual rate,"[1]; pH6.0, 0.5 hr",93.0%
same,Production rate of Alvocidib,"[1]; pH6.0, 1 hr",5.7%
same,Residual rate,"[1]; pH6.0, 1 hr",89.6%
same,Production rate of Alvocidib,"[1]; pH6.0, 2 hr",11.1%
same,Residual rate,"[1]; pH6.0, 2 hr",81.0%
same,Production rate of Alvocidib,"[1]; pH6.0, 3 hr",15.7%
same,Residual rate,"[1]; pH6.0, 3 hr",74.5%
same,Production rate of Alvocidib,"[1]; pH6.5, 0 hr",0.0%
same,Residual rate,"[1]; pH6.5, 0 hr",95.9%
same,Production rate of Alvocidib,"[1]; pH6.5, 0.5 hr",7.9%
same,Residual rate,"[1]; pH6.5, 0.5 hr",87.4%
same,Production rate of Alvocidib,"[1]; pH6.5, 1 hr",15.1%
same,Residual rate,"[1]; pH6.5, 1 hr",75.4%
same,Production rate of Alvocidib,"[1]; pH6.5, 2 hr",27.2%
same,Residual rate,"[1]; pH6.5, 2 hr",57.4%
same,Production rate of Alvocidib,"[1]; pH6.5, 3 hr",36.1%
same,Residual rate,"[1]; pH6.5, 3 hr",45.1%
same,Production rate of Alvocidib,"[1]; pH7.0, 0 hr",0.0%
same,Residual rate,"[1]; pH7.0, 0 hr",95.4%
same,Production rate of Alvocidib,"[1]; pH7.0, 0.5 hr",21.0%
same,Residual rate,"[1]; pH7.0, 0.5 hr",66.7%
same,Production rate of Alvocidib,"[1]; pH7.0, 1 hr",38.0%
same,Residual rate,"[1]; pH7.0, 1 hr",44.8%
same,Production rate of Alvocidib,"[1]; pH7.0, 2 hr",53.4%
same,Residual rate,"[1]; pH7.0, 2 hr",19.9%
same,Production rate of Alvocidib,"[1]; pH7.0, 3 hr",60.8%
same,Residual rate,"[1]; pH7.0, 3 hr",9.8%
same,Production rate of Alvocidib,"[1]; pH7.4, 0 hr",0.2%
same,Residual rate,"[1]; pH7.4, 0 hr",95.4%
same,Conversion to Alvocidib at pH 7.4,"[1]; pH 7.4, 37° C., up to 3 hours",rapidly converted to Alvocidib
same,Production rate of Alvocidib,"[1]; pH7.4, 0.5 hr",38.7%
same,Residual rate,"[1]; pH7.4, 0.5 hr",41.7%
same,Production rate of Alvocidib,"[1]; pH7.4, 1 hr",56.4%
same,Residual rate,"[1]; pH7.4, 1 hr",17.1%
same,Production rate of Alvocidib,"[1]; pH7.4, 2 hr",66.0%
same,Residual rate,"[1]; pH7.4, 2 hr",3.5%
same,Production rate of Alvocidib,"[1]; pH7.4, 3 hr",67.6%
same,Residual rate,"[1]; pH7.4, 3 hr",1.5%
same,Residual rate (%) of test compound,[2]; 0 min,100%
same,Residual rate (%) of test compound,[2]; 30 min,4%
same,Residual rate (%) of test compound,[2]; 60 min,2%
same,Conversion to Alvocidib in human plasma,"[2]; human plasma, Examples up to 60 minutes, Comparative Examples up to 120 minutes",proceeded rapidly
